According to ChEMBL document CHEMBL1157050, “Synthesis and cytotoxic evaluation of N2-benzylated quaternary beta-carboline amino acid ester conjugates” (Eur J Med Chem, 2010):

How the values were obtained:
Type in all cases: functional, cell-based
786-0 = experiment: Cytotoxicity against human 786-0 cells by MTT assay
A-375 = experiment: Cytotoxicity against human A375 cells by MTT assay
KB = experiment: Cytotoxicity against human KB cells by MTT assay
[1] = Cytotoxicity against human BGC cells by MTT assay
769-P = experiment: Cytotoxicity against human 769-P cells by MTT assay

Row | SMILES | IC50 (786-0) [µM] | IC50 (A-375) [µM] | IC50 (KB) [µM] | IC50 [1] [µM] | IC50 (769-P) [µM]
1 | CCCCn1c2ccccc2c2cc(C(=O)N[C@@H](Cc3ccc(O)cc3)C(=O)OC)ncc21 | > 200 | > 200 | > 200 | > 200 | > 200
2 | CCOC(=O)[C@H](CCSC)NC(=O)c1cc2c3ccccc3n(Cc3ccccc3)c2cn1 | > 200 | > 200 | > 200 | > 200 | > 200
3 | CCOC(=O)[C@H](Cc1ccccc1)NC(=O)c1cc2c3ccccc3n(Cc3ccccc3)c2cn1 | > 200 | > 200 | > 200 | > 200 | > 200
4 | CC(C)[C@H](NC(=O)c1cc2c3ccccc3n(CCCc3ccccc3)c2cn1)C(=O)O | 84.6 | 58 | 106 | 139 | 78.3
5 | CSCC[C@H](NC(=O)c1cc2c3ccccc3n(CCCc3ccccc3)c2cn1)C(=O)O | 70 | 58.9 | 96.6 | 136 | 116
6 | CCCCn1c2ccccc2c2cc(C(=O)N[C@@H](C)C(=O)OC)ncc21 | > 200 | > 200 | > 200 | > 200 | 27.2
7 | CCCCn1c2ccccc2c2cc(C(=O)N[C@H](C(=O)OC)C(C)C)ncc21 | > 200 | > 200 | > 200 | > 200 | > 200
8 | COC(=O)[C@H](C)NC(=O)c1cc2c3ccccc3n(CCCc3ccccc3)c2cn1 | > 200 | > 200 | > 200 | 148 | > 200
9 | CCOC(=O)[C@@H](NC(=O)c1cc2c3ccccc3n(CCCc3ccccc3)c2cn1)C(C)C | > 200 | > 200 | > 200 | > 200 | > 200
10 | O=C(N[C@@H](Cc1ccccc1)C(=O)O)c1cc2c3ccccc3n(CCCc3ccccc3)c2cn1 | 52.7 | 33.8 | 38.8 | 76.1 | 8
11 | CCCCn1c2ccccc2c2cc(C(=O)N[C@@H](Cc3ccccc3)C(=O)OCC)[n+](Cc3ccccc3)cc21 | 15 | 41.7 | 11.3 | 21.4 | 19.2
12 | CCOC(=O)[C@H](Cc1ccccc1)NC(=O)c1cc2c3ccccc3n(Cc3ccccc3)c2c[n+]1Cc1ccccc1 | 69.4 | 25.8 | 51.4 | 92.5 | 13.5
13 | CCOC(=O)[C@@H](NC(=O)c1cc2c3ccccc3n(CCCc3ccccc3)c2c[n+]1Cc1ccccc1)C(C)C | 4 | 10.4 | 12.5 | 17.8 | 14
14 | CCOC(=O)[C@H](CCSC)NC(=O)c1cc2c3ccccc3n(CCCc3ccccc3)c2c[n+]1Cc1ccccc1 | 10.1 | 7.3 | 9.4 | 12 | 7.6
15 | CCOC(=O)[C@H](Cc1ccccc1)NC(=O)c1cc2c3ccccc3n(CCCc3ccccc3)c2c[n+]1Cc1ccccc1 | 23.4 | 21.3 | 18.2 | 23.7 | 22.9
16 | CCCCn1c2ccccc2c2cc(C(=O)N[C@H](C(=O)OCC)C(C)C)[n+](Cc3ccccc3)cc21 | 14.4 | 22.5 | 28.4 | 44.2 | 13.7

Row | SMILES | IC50 (786-0) [µM] | IC50 (A-375) [µM] | IC50 (KB) [µM] | IC50 [1] [µM] | IC50 (769-P) [µM]
17 | CCCCn1c2ccccc2c2cc(C(=O)N[C@@H](CCSC)C(=O)OCC)[n+](Cc3ccccc3)cc21 | 1.7 | 8.2 | 10.8 | 13.4 | 7.5
18 | CCOC(=O)[C@@H](NC(=O)c1cc2c3ccccc3n(Cc3ccccc3)c2c[n+]1Cc1ccccc1)C(C)C | 10.8 | 15.8 | 25.3 | 21.9 | 12.5
19 | CCCCn1c2ccccc2c2cc(C(=O)N[C@@H](CCSC)C(=O)O)ncc21 | > 200 | > 200 | > 200 | > 200 | 105
20 | CCCCn1c2ccccc2c2cc(C(=O)N[C@@H](Cc3ccccc3)C(=O)O)ncc21 | 191 | 160 | 155 | > 200 | 114
21 | CCCCn1c2ccccc2c2cc(C(=O)N[C@@H](Cc3ccc(O)cc3)C(=O)O)ncc21 | > 200 | 121 | > 200 | > 200 | > 200
22 | CSCC[C@H](NC(=O)c1cc2c3ccccc3n(Cc3ccccc3)c2cn1)C(=O)O | > 200 | 156 | 135 | > 200 | 145
23 | CCCCn1c2ccccc2c2cc(C(=O)N[C@@H](CCSC)C(=O)OCC)ncc21 | > 200 | > 200 | > 200 | > 200 | > 200
24 | CCCCn1c2ccccc2c2cc(C(=O)N[C@@H](Cc3ccccc3)C(=O)OC)ncc21 | > 200 | > 200 | > 200 | > 200 | > 200
25 | CCCCn1c2ccccc2c2cc(C(=O)N[C@@H](CCSC)C(=O)OCC)nc(C)c21 | > 200 | > 200 | > 200 | > 200 | > 200
26 | CCCCn1c2ccccc2c2cc(C(=O)N[C@@H](Cc3ccccc3)C(=O)OCC)nc(C)c21 | > 200 | > 200 | > 200 | > 200 | > 200
27 | C[C@H](NC(=O)c1cc2c3ccccc3n(CCCc3ccccc3)c2cn1)C(=O)O | 78.3 | 96.3 | 179 | 162 | 120
28 | CCOC(=O)[C@H](CCSC)NC(=O)c1cc2c3ccccc3n(CCCc3ccccc3)c2cn1 | > 200 | > 200 | 176 | > 200 | > 200
29 | CCOC(=O)[C@H](Cc1ccccc1)NC(=O)c1cc2c3ccccc3n(CCCc3ccccc3)c2cn1 | > 200 | > 200 | 89.2 | > 200 | 187
30 | CCCCn1c2ccccc2c2cc(C(=O)N[C@@H](Cc3ccccc3)C(=O)OCC)ncc21 | > 200 | > 200 | 113 | > 200 | 32.5
31 | CC(=O)O[C@H]1C(=O)[C@@]2(C)[C@H]([C@H](OC(=O)c3ccccc3)[C@]3(O)C[C@H](OC(=O)[C@H](O)[C@@H](NC(=O)c4ccccc4)c4ccccc4)C(C)=C1C3(C)C)[C@]1(OC(C)=O)CO[C@@H]1C[C@@H]2O [PACLITAXEL] | < 0.08 | 0.81 | 0.08 | 1.5 | 7.1
